The source of these data is US20250302809A1, “GLP1 PHARMACEUTICAL COMPOSITIONS” (Eli Lilly and Company, priority 2022, published 2025).

Data set [1] in a line: pKa of GLP1RA. The format is physicochemical. As to conditions: weak acid.
Data set [2] can be described thus: aqueous solubility across the physiologic pH range and in simulated physiological fluids. The class given is physicochemical. As to conditions: across the physiologic pH range as well as in simulated physiological fluids.

On to `Cc1cc(-n2nc3c(c2-n2ccn(-c4ccc5c(cnn5C)c4F)c2=O)[C@H](C)N(C(=O)c2cc4cc([C@H]5CCOC(C)(C)C5)ccc4n2[C@@]2(c4noc(=O)[nH]4)C[C@@H]2C)CC3)cc(C)c1F` [GLP1RA, 3-[(1S,2S)-1-[5-[(4S)-2,2-dimethyloxan-4-yl]-2-[(4S)-2-(4-fluoro-3,5-dimethylphenyl)-3-[3-(4-fluoro-1-methylindazol-5-yl)-2-oxoimidazol-1-yl]-4-methyl-6,7-dihydro-4H-pyrazolo[4,3-c]pyridine-5-carbonyl]indol-1-yl]-2-methylcyclopropyl]-4H-1,2,4-oxadiazol-5-one], for which the pKa in data set [1] was determined as 5.1. In addition, in data set [2], the aqueous solubility result was “very low”.
